Data from patent US20260115209A1, “COMBINATION THERAPY INCLUDING COX-2 INHIBITOR FOR THE TREATMENT OF CANCER” (THE REGENTS OF THE UNIVERSITY OF CALIFORNIA, priority 2022, published 2026).

How the values were obtained:
Format in all cases: cell-based
SRC = assay: High throughput kinase-activity mapping (HT-KAM) of treated cell extracts; details: WiDr cells treated 8 hours with vemurafenib ± gefitinib or cetuximab; FIG. 1B
Description: (§1) For samples to be analyzed with the HT-KAM platform, cells at ˜85% confluency were washed three times with cold PBS and lysed with freshly prepared 1× cell lysis buffer (1 ml per 2.5×10^6 cells) (lOX Cell Lysis Buffer, Cell Signaling; cat. #9803) complemented with 1× of Halt Protease & Phosphatase (100×, ThermoScientific; cat. #1861281). Cell lysates were collected and spun down at 14,000 rpm for 15 min at 4° C. and supernatants stored at −80° C. For samples to be analyzed by western blot, cell lysates were prepared with RIPA lysis buffer (150 mM NaCl, 0.1% SDS, 1% Nonidet P40, 1% sodium deoxycholate and 10 mM sodium phosphate, pH 7.2) supplemented with protease and phosphatase inhibitors. After clearing by centrifugation at 12,000 rpm for 10 minutes at 4° C., the lysates were analyzed as described in the respective experiments.
This high throughput kinase-activity mapping (HT-KAM) platform uses arrays of peptides that act as sensors of phosphorylation activity (7). The phospho-catalytic signature of samples is established from simultaneously occurring ATP-consumption tests measured in the presence of individual peptides that are experimentally isolated from each other. […] Luminescence is acquired using the Synergy 2 Multi-Mode Microplate Reader from BioTek. Luminescence data are inversely correlated with the amount of kinase activity. […]

SNUC5 = assay: Cell viability assay (CellTiter-Glo), GI50, 3-day treatment; details: 72 h; SNUC5 (BRAF^V600E CRC); 50% growth inhibition after 3 days of treatment compared to control; read-out: GI50 concentrations
Description: To assess the growth/survival response of cell lines to single or combinatorial drug treatments, we used CellTiter-Glo cell viability assay (Promega; cat #G7571). Cell culture and luminescence readouts were performed in 96- and 384-well plates after 3-day treatments. GI50 corresponds to the concentration of a given drug that causes 50% inhibition of cell growth (GI50). The effects of drug combinations on cell growth were assessed by calculating fold change in VEM-sensitivity and combination index (C.I.) that were experimentally measured from ≥9 individual datapoints around drugs' GI50, i.e. at GI50, 0.5×GI50, 2×GI50 concentrations of each drug per drug combination experiment. To address the particular effects of some drug treatments on some cell lines, the choice of experimental datapoints centered around drugs' GI50 effects was adjusted by including individual datapoints ranging from ≥GI25 to ≤GI75, leading to calculate fold change in VEM-sensitivity and combination index (C.I.) from 12 to 20 individual datapoints, as previously explained (7).

SFK = assay: Western blot of SFK activation (Y419 phosphorylation); details: BRAF^V600E CRC cell lines
Description: as §1
For western-blot, samples were denatured by boiling in 1× Laemmli buffer and run on an 8% SDS-PAGE gel. After transfer onto a PVDF membrane and blocking with 3% BSA, the membranes were incubated with primary antibodies overnight at 4° C., washed 3 times with TBST (Tris-buffered saline containing 0.05% Tween-20), incubated with secondary antibodies for 1 hour at room temperature and developed using chemoluminescence (cat #32209 from Pierce).
Antibodies anti-HSP90 was procured from Santa Cruz Biotechnologies (H-114, cat #7947). […]

CCCS(=O)(=O)Nc1ccc(F)c(C(=O)c2c[nH]c3ncc(-c4ccc(Cl)cc4)cc23)c1F [vemurafenib, N-[3-[5-(4-chlorophenyl)-1H-pyrrolo[2,3-b]pyridine-3-carbonyl]-2,4-difluorophenyl]propane-1-sulfonamide]
SRC kinase activity (SRC): most significantly increased kinase activity
GI50 (SNUC5): 2250 nM
SFK activation (phosphorylation of Y419) (SFK): increased SFK activation
